Results: article PMC10778198, “First-in-Human Dose-Escalation Study of the Novel Oral Depsipeptide Class I-Targeting HDAC Inhibitor Bocodepsin (OKI-179) in Patients with Advanced Solid Tumors” (Cancers, 2023)

System: patients with advanced solid tumors
Test: phase I dose escalation: safety, DLT, MTD, RP2D (CTCAE v. 5)
Format: in vivo
Source text: Subsequent dosing cohorts were enrolled using a standard 3 + 3 design.
If any patient in any cohort of three patients developed a DLT during cycle 1, an additional three patients were recruited to expand the cohort to up to six evaluable patients. If two or more patients in any expanded cohort developed a DLT, this dose was considered non-tolerated, and dose escalation was discontinued. The MTD was defined as the highest dose level for which no more than one of six patients experienced a DLT.
Patients were continuously evaluated for adverse events throughout the study using the Common Terminology Criteria of Adverse Events (CTCAE v. 5). The patients underwent a clinical history and physical examination, an ECOG PS, a complete blood count (CBCs), chemistry, coagulation studies, urinalysis, a serum pregnancy test (as applicable), a triplicate ECG, an ophthalmology examination, and baseline tumor assessment at screening. During cycle 1, weekly history and physical examination, CBC, chemistry, coagulation parameters, urinalysis, and triplicate ECGs were performed; in subsequent cycles, weekly labs were limited to a CBC. Repeat ophthalmology examinations were performed at cycle 3, day 1, and at the end of treatment. Repeat tumor assessment was performed every 2 cycles (6 weeks) in accordance with RECIST 1.1.

[1] = All 4:3 Patients (n = 20), All Grades
[2] = All Continuous Patients (N=8), All grades
[3] = All Continuous Patients (N=8), G1
[4] = All Continuous Patients (N=8), G2
[5] = All Continuous Patients (N=8), G3

SMILES: CC(C)[C@H](N)C(=O)SCC/C=C/[C@@H]1CC(=O)NCc2nc(cs2)C(=O)NC(C)(C)C(=O)N[C@@H](C(C)C)C(=O)O1 [OKI-179, Bocodepsin]
- TEAE: Platelet count decreased (5:2, 300 mg (N=6), G2): 0 N (%)
- TEAE: Pneumonitis (5:2, 300 mg (N=6), G2): 1 (17) N (%)
- TEAE: Pneumothorax (5:2, 300 mg (N=6), G2): 0 N (%)
- TEAE: Vomiting (5:2, 300 mg (N=6), G2): 1 (17) N (%)
- TEAE: Abdominal pain (5:2, 300 mg (N=6), G3): 0 N (%)
- TEAE: Anemia (5:2, 300 mg (N=6), G3): 1 (17) N (%)
- TEAE: Aspartate aminotransferase increased (5:2, 300 mg (N=6), G3): 0 N (%)
- TEAE: Back pain (5:2, 300 mg (N=6), G3): 1 (17) N (%)
- TEAE: Bile duct stenosis (5:2, 300 mg (N=6), G3): 1 (17) N (%)
- TEAE: Blood alkaline phosphatase increased (5:2, 300 mg (N=6), G3): 0 N (%)
- TEAE: Decreased appetite (5:2, 300 mg (N=6), G3): 1 (17) N (%)
- TEAE: Dehydration (5:2, 300 mg (N=6), G3): 0 N (%)
- TEAE: Dysphagia (5:2, 300 mg (N=6), G3): 0 N (%)
- TEAE: ECG QT prolonged (5:2, 300 mg (N=6), G3): 0 N (%)
- TEAE: Enterococcal bacteremia (5:2, 300 mg (N=6), G3): 1 (17) N (%)
- TEAE: Esophagitis (5:2, 300 mg (N=6), G3): 0 N (%)
- TEAE: Esophagoscopy (5:2, 300 mg (N=6), G3): 0 N (%)
- TEAE: Eye pain (5:2, 300 mg (N=6), G3): 0 N (%)
- TEAE: Fatigue (5:2, 300 mg (N=6), G3): 0 N (%)
- TEAE: Gastritis (5:2, 300 mg (N=6), G3): 0 N (%)
- TEAE: Hypomagnesaemia (5:2, 300 mg (N=6), G3): 0 N (%)
- TEAE: Myalgia (5:2, 300 mg (N=6), G3): 0 N (%)
- TEAE: Nausea (5:2, 300 mg (N=6), G3): 1 (17) N (%)
- TEAE: Neutrophil count decreased (5:2, 300 mg (N=6), G3): 0 N (%)
- TEAE: Oropharyngeal pain (5:2, 300 mg (N=6), G3): 0 N (%)
- TEAE: Pain in extremity (5:2, 300 mg (N=6), G3): 0 N (%)
- TEAE: Paresthesia (5:2, 300 mg (N=6), G3): 0 N (%)
- TEAE: Platelet count decreased (5:2, 300 mg (N=6), G3): 0 N (%)
- TEAE: Pneumonitis (5:2, 300 mg (N=6), G3): 0 N (%)
- TEAE: Pneumothorax (5:2, 300 mg (N=6), G3): 1 (17) N (%)
- TEAE: Vomiting (5:2, 300 mg (N=6), G3): 0 N (%)
- TEAE: Fatigue (5:2 cohort, 300 mg): 67%
- TEAE: Nausea (5:2 cohort, 300 mg): 83%
- TEAE: Vomiting (5:2 cohort, 300 mg): 50%
- TEAE: decreased platelet count (5:2 cohort, 300 mg): 67%
- TEAE: Anemia [1]: 8 (40) n (%)
- TEAE: Back pain [1]: 4 (20) n (%)
- TEAE: Cough [1]: 4 (20) n (%)
- TEAE: Decreased appetite [1]: 7 (35) n (%)
- TEAE: Diarrhea [1]: 5 (25) n (%)
- TEAE: Dyspnea [1]: 3 (15) n (%)
- TEAE: ECG QT prolonged [1]: 4 (20) n (%)
- TEAE: Fatigue [1]: 8 (40) n (%)
- TEAE: Headache [1]: 3 (15) n (%)
- TEAE: Hypokalaemia [1]: 3 (15) n (%)
- TEAE: Muscular weakness [1]: 4 (20) n (%)
- TEAE: Nasal congestion [1]: 3 (15) n (%)
- TEAE: Platelet count decreased [1]: 6 (30) n (%)
- TEAE: Proteinuria [1]: 3 (15) n (%)
- TEAE: Pyrexia [1]: 4 (20) n (%)
- TEAE: Vomiting [1]: 6 (30) n (%)
- TEAE: Weight decreased [1]: 3 (15) n (%)
- TEAE: Anemia (All 4:3 Patients (n = 20), G1): 1 (5) n (%)
- TEAE: Back pain (All 4:3 Patients (n = 20), G1): 3 (15) n (%)
- TEAE: Cough (All 4:3 Patients (n = 20), G1): 3 (15) n (%)
- TEAE: Decreased appetite (All 4:3 Patients (n = 20), G1): 4 (20) n (%)
- TEAE: Diarrhea (All 4:3 Patients (n = 20), G1): 5 (25) n (%)
- TEAE: Dyspnea (All 4:3 Patients (n = 20), G1): 3 (15) n (%)
- TEAE: ECG QT prolonged (All 4:3 Patients (n = 20), G1): 1 (5) n (%)
- TEAE: Fatigue (All 4:3 Patients (n = 20), G1): 3 (15) n (%)
- TEAE: Headache (All 4:3 Patients (n = 20), G1): 3 (15) n (%)
- TEAE: Hypokalaemia (All 4:3 Patients (n = 20), G1): 1 (5) n (%)
- TEAE: Muscular weakness (All 4:3 Patients (n = 20), G1): 1 (5) n (%)
- TEAE: Nasal congestion (All 4:3 Patients (n = 20), G1): 3 (15) n (%)
- TEAE: Nausea (All 4:3 Patients (n = 20), G1): 9 (45) n (%)
- TEAE: Platelet count decreased (All 4:3 Patients (n = 20), G1): 4 (20) n (%)
- TEAE: Proteinuria (All 4:3 Patients (n = 20), G1): 0 n (%)
- TEAE: Pyrexia (All 4:3 Patients (n = 20), G1): 3 (15) n (%)
- TEAE: Vomiting (All 4:3 Patients (n = 20), G1): 5 (25) n (%)
- TEAE: Weight decreased (All 4:3 Patients (n = 20), G1): 2 (10) n (%)
- TEAE: Anemia (All 4:3 Patients (n = 20), G2): 2 (10) n (%)
- TEAE: Back pain (All 4:3 Patients (n = 20), G2): 0 n (%)
- TEAE: Cough (All 4:3 Patients (n = 20), G2): 1 (5) n (%)
- TEAE: Decreased appetite (All 4:3 Patients (n = 20), G2): 3 (15) n (%)
- TEAE: Diarrhea (All 4:3 Patients (n = 20), G2): 0 n (%)
- TEAE: Dyspnea (All 4:3 Patients (n = 20), G2): 0 n (%)
- TEAE: ECG QT prolonged (All 4:3 Patients (n = 20), G2): 0 n (%)
- TEAE: Fatigue (All 4:3 Patients (n = 20), G2): 2 (10) n (%)
- TEAE: Headache (All 4:3 Patients (n = 20), G2): 0 n (%)
- TEAE: Hypokalaemia (All 4:3 Patients (n = 20), G2): 2 (10) n (%)
- TEAE: Muscular weakness (All 4:3 Patients (n = 20), G2): 2 (10) n (%)
- TEAE: Nasal congestion (All 4:3 Patients (n = 20), G2): 0 n (%)
- TEAE: Nausea (All 4:3 Patients (n = 20), G2): 4 (20) n (%)
- TEAE: Platelet count decreased (All 4:3 Patients (n = 20), G2): 2 (10) n (%)
- TEAE: Proteinuria (All 4:3 Patients (n = 20), G2): 3 (15) n (%)
- TEAE: Pyrexia (All 4:3 Patients (n = 20), G2): 0 n (%)
- TEAE: Vomiting (All 4:3 Patients (n = 20), G2): 1 (5) n (%)
- TEAE: Weight decreased (All 4:3 Patients (n = 20), G2): 1 (5) n (%)
- TEAE: Anemia (All 4:3 Patients (n = 20), G3): 5 (25) n (%)
- TEAE: Back pain (All 4:3 Patients (n = 20), G3): 1 (5) n (%)
- TEAE: Cough (All 4:3 Patients (n = 20), G3): 0 n (%)
- TEAE: Decreased appetite (All 4:3 Patients (n = 20), G3): 0 n (%)
- TEAE: Diarrhea (All 4:3 Patients (n = 20), G3): 0 n (%)
- TEAE: Dyspnea (All 4:3 Patients (n = 20), G3): 0 n (%)
- TEAE: ECG QT prolonged (All 4:3 Patients (n = 20), G3): 3 (15) n (%)
- TEAE: Fatigue (All 4:3 Patients (n = 20), G3): 3 (15) n (%)
- TEAE: Headache (All 4:3 Patients (n = 20), G3): 0 n (%)
- TEAE: Hypokalaemia (All 4:3 Patients (n = 20), G3): 0 n (%)
- TEAE: Muscular weakness (All 4:3 Patients (n = 20), G3): 1 (5) n (%)
- TEAE: Nasal congestion (All 4:3 Patients (n = 20), G3): 0 n (%)
- TEAE: Nausea (All 4:3 Patients (n = 20), G3): 0 n (%)
- TEAE: Platelet count decreased (All 4:3 Patients (n = 20), G3): 0 n (%)
- TEAE: Proteinuria (All 4:3 Patients (n = 20), G3): 0 n (%)
- TEAE: Pyrexia (All 4:3 Patients (n = 20), G3): 1 (5) n (%)
- TEAE: Vomiting (All 4:3 Patients (n = 20), G3): 0 n (%)
- TEAE: Weight decreased (All 4:3 Patients (n = 20), G3): 0 n (%)
- TEAE: Abdominal pain [2]: 2 (25) N (%)
- TEAE: Anemia [2]: 2 (25) N (%)
- TEAE: Constipation [2]: 6 (75) N (%)
- TEAE: Decreased appetite [2]: 2 (25) N (%)
- TEAE: Diarrhea [2]: 3 (38) N (%)
- TEAE: Dyspepsia [2]: 2 (25) N (%)
- TEAE: ECG QT prolonged [2]: 2 (25) N (%)
- TEAE: Fatigue [2]: 4 (50) N (%)
- TEAE: Headache [2]: 3 (38) N (%)
- TEAE: Nausea [2]: 6 (75) N (%)
- TEAE: Pain [2]: 2 (25) N (%)
- TEAE: Platelet count decreased [2]: 4 (50) N (%)
- TEAE: Abdominal pain [3]: 1 (13) N (%)
- TEAE: Anemia [3]: 0 N (%)
- TEAE: Constipation [3]: 3 (38) N (%)
- TEAE: Decreased appetite [3]: 1 (13) N (%)
- TEAE: Diarrhea [3]: 3 (38) N (%)
- TEAE: Dyspepsia [3]: 1 (13) N (%)
- TEAE: ECG QT prolonged [3]: 1 (13) N (%)
- TEAE: Fatigue [3]: 1 (13) N (%)
- TEAE: Headache [3]: 3 (38) N (%)
- TEAE: Nausea [3]: 4 (50) N (%)
- TEAE: Pain [3]: 1 (13) N (%)
- TEAE: Platelet count decreased [3]: 1 (13) N (%)
- TEAE: Abdominal pain [4]: 1 (13) N (%)
- TEAE: Anemia [4]: 2 (25) N (%)
- TEAE: Constipation [4]: 3 (38) N (%)
- TEAE: Decreased appetite [4]: 0 N (%)
- TEAE: Diarrhea [4]: 0 N (%)
- TEAE: Dyspepsia [4]: 1 (13) N (%)
- TEAE: ECG QT prolonged [4]: 1 (13) N (%)
- TEAE: Fatigue [4]: 2 (25) N (%)
- TEAE: Headache [4]: 0 N (%)
- TEAE: Nausea [4]: 2 (25) N (%)
- TEAE: Pain [4]: 1 (13) N (%)
- TEAE: Platelet count decreased [4]: 1 (13) N (%)
- TEAE: Abdominal pain [5]: 0 N (%)
- TEAE: Anemia [5]: 0 N (%)
- TEAE: Constipation [5]: 0 N (%)
- TEAE: Decreased appetite [5]: 1 (13) N (%)
- TEAE: Diarrhea [5]: 0 N (%)
- TEAE: Dyspepsia [5]: 0 N (%)
- TEAE: ECG QT prolonged [5]: 0 N (%)
- TEAE: Fatigue [5]: 1 (13) N (%)
